Assay [1] concerns the target T1, recombinant human HDAC8 (Homo sapiens, UniProt Q9BY41).
T1 construct: made in house; host or cells: insect cells
T1 sequence (Q9BY41 1-377): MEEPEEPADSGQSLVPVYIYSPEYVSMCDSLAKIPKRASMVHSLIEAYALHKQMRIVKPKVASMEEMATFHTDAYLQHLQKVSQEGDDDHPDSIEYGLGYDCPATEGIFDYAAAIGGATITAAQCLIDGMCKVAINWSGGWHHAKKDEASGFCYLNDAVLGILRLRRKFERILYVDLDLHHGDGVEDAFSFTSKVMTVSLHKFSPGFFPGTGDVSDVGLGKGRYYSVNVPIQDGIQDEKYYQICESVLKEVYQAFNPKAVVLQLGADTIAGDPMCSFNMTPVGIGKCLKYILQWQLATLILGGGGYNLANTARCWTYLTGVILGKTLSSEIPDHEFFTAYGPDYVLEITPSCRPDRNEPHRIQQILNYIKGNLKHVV
The experiment in a line: HDAC8 inhibition: recombinant HDAC8 fluorometric assay. In kind it is biochemical. The following applies: recombinant human HDAC8, substrate Ac-Arg-His-Lys-Lys(ε-acetyl)-AMC; read-out: HDAC8 IC50. The method in brief:
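Recombinant human HDAC8 from insect cells was preincubated with compound for 15 min at rt, then given Ac-Arg-His-Lys-Lys(ε-acetyl)-AMC substrate for 30 min at rt. IC50 came from normalized percent inhibition with curve fitting.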

In assay [2] the target is T2, HDAC6 (Homo sapiens, UniProt Q9UBN7).
T2 construct: endogenous in cells; host or cells: A549 cells
T2 sequence (Q9UBN7 1-1215): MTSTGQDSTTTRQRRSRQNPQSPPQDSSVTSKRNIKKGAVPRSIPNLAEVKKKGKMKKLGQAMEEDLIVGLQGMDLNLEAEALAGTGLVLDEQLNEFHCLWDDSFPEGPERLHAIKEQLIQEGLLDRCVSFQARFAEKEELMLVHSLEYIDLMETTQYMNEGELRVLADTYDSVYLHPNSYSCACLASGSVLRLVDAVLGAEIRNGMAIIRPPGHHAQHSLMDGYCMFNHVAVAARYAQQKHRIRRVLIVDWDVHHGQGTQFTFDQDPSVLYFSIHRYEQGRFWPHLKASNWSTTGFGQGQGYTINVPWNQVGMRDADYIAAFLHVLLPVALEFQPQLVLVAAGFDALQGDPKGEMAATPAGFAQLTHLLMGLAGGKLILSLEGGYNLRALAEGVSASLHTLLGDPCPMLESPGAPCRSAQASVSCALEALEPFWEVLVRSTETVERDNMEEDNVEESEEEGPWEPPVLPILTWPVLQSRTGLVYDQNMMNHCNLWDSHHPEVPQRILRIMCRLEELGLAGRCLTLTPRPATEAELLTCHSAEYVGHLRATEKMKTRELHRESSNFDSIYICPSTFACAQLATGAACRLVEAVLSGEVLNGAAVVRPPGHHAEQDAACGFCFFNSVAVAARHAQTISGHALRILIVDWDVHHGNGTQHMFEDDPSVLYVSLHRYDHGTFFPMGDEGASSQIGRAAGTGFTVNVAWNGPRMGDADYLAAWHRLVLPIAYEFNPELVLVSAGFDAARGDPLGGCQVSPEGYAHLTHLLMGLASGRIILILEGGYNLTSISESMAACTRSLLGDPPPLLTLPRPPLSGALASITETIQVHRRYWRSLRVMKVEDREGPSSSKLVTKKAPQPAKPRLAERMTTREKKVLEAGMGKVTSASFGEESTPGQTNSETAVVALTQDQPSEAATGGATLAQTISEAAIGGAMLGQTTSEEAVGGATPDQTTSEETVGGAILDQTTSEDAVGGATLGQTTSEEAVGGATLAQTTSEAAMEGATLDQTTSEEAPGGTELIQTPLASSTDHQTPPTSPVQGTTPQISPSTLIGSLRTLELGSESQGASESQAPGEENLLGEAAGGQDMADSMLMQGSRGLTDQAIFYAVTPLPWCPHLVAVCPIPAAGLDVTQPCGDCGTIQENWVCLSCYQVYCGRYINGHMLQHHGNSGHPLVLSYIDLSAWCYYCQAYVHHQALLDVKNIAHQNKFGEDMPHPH
The assay is described as follows: Tubulin acetylation cytoblot assay (A549 cells). In kind it is cell-based. The note with it: 17-18 h incubation, tubulin acetylation as marker of HDAC6 inhibition, read-out: Tub-Ac EC50. Here is the method: Tubulin Acetylation Induction by Novel Compounds: Tubulin Acetylation Cytoblot Assay.
Tubulin acetylation is a PD marker for HDAC6 inhibition. The extent of tubulin acetylation represents the inhibitory effect on HDAC6.
Novel compounds were tested for their ability to inhibit HDAC6 using a cell-based deacetylation assay. Tubulin acetylation was detected by the anti-acetylated tubulin antibody (Sigma) and horse radish peroxidase (HRP) conjugated secondary antibody (KangChen Bio. Tech.). […] 20 μl of diluted compound solution was transferred to the cell culture plate and incubated for 17-18 h. After medium removal and fixation by formaldehyde (3.7% paraformaldehyde in TBS), the cells in the plates were treated with 180 μl of −20° C. MeOH and incubated for 5 min at rt. The cell lysis was incubated with 75 μl of primary anti-acetylated tubulin antibody and secondary HRP conjugated antibody solution (1:750 anti-acetylated tubulin, 1:750 HRP conjugated anti-mouse IgG in antibody dilution buffer not containing sodium azide) for 4 h at 4° C. By adding the HRP substrate, enhanced chemiluminescence (ECL) reagent (GE Healthcare) generated luminescence corresponding to the level of tubulin acetylation. So that 75 μl of ECL was added into the wells and the luminescence from each well was immediately quantified by the plate reader. Based on the luminescence reading, the Tub-Ac EC50s against HDAC6 of the tested compounds were calculated by plotting the curve with XLfit4.0 software. Inhibition %=[signal(sample)−Mean(bottom)]×100/[Mean(top)−Mean(bottom)]

Assay [3] relates to p21 promoter-luciferase construct. The assay is described as follows: p21 reporter gene induction (HeLa cells, p21 promoter-luciferase construct).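 On all read-outs here: transfected HeLa cells exposed to compound for 15 h, luciferase luminescence read from lysates, p21 promoter lacks p53 site, proxy for cellular HDAC1/2/3 inhibition.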 The following applies: for p21 RP3: relative gene level of p21 compared to MS275 at 3 μM; for p21 RP10: relative level of p21 compared to MS275 at 10 μM; for p21 RP30: relative level of p21 compared to MS275 at 30 μM.

`CC1(Nc2ccc(C(=O)NO)cc2)CCN(c2cccc(F)c2)C1=O` (stereo not drawn) [Example 58, 4-[1-(3-Fluoro-phenyl)-3-methyl-2-oxo-pyrrolidin-3-ylamino]-N-hydroxy-benzamide]: the IC50 in assay [1] is 0.91 µM. Moreover, the EC50 in assay [2] is 1 µM. Moreover, in assay [3], the “p21 RP3” value worked out at 0.50, the “p21 RP10” value is on record as 0.13 and the “p21 RP30” value came to 0.07.
Regarding `CC1(Nc2ccc(C(=O)NO)cc2)CCN(c2cccc3cccnc23)C1=O` (stereo not drawn) [Example 62, N-Hydroxy-4-(3-methyl-2-oxo-1-quinolin-8-yl-pyrrolidin-3-ylamino)-benzamide], the IC50 in assay [1] worked out at 0.71 µM. Further, the concentration for a half-maximal effect (EC50) in assay [2] worked out at 1.93 µM. In assay [3], the “p21 RP3” value was determined as 0.55, the “p21 RP10” value is given as 0.11 and the “p21 RP30” value was 0.20.
The like results for `O=C(NO)c1ccc(NC2CCN(C3(c4ccccc4)CCCCC3)C2=O)cc1` (stereo not drawn) [Example 56, N-Hydroxy-4-[2-oxo-1-(1-phenyl-cyclohexyl)-pyrrolidin-3-ylamino]-benzamide] were, in that order, 1.11 µM, 2.82 µM, 0.37, 0.07 and 0.14.
With `O=C(NO)c1ccc(NC2CCN(c3cccc4cccnc34)C2=O)cc1` (stereo not drawn) [Example 39, N-Hydroxy-4-(2-oxo-1-quinolin-8-yl-pyrrolidin-3-ylamino)-benzamide], in assay [1], the IC50 came out at 0.57 µM. In addition, in assay [2], the EC50 worked out at 13.1 µM. Besides, in assay [3], the “p21 RP3” value was determined as 0.29, the “p21 RP10” value is recorded as 0.09 and the “p21 RP30” value turned out to be 0.20.
The like results for `CC(C)c1ccc(N2CCC(Nc3ccc(C(=O)NO)cc3)C2=O)cc1` (stereo not drawn) [Example 14, N-Hydroxy-4-[1-(4-isopropyl-phenyl)-2-oxo-pyrrolidin-3-ylamino]-benzamide] were, in that order, 3.18 µM, 2.61 µM, 0.13, 0.07 and 0.06.
As for `CS(=O)(=O)c1ccc(N2CCC(Nc3ccc(C(=O)NO)cc3)C2=O)cc1` (stereo not drawn) [Example 17, N-Hydroxy-4-[1-(4-methanesulfonyl-phenyl)-2-oxo-pyrrolidin-3-ylamino]-benzamide], in assay [1], the IC50 amounted to 1.19 µM. Besides, in assay [2], the EC50 came to 11.9 µM. Moreover, in assay [3], the “p21 RP3” value came to 0.00, the “p21 RP10” value came out at 0.02 and the “p21 RP30” value was 0.02.
On to `O=C(NO)c1ccc(NC2CCN(c3ccccc3F)C2=O)cc1` (stereo not drawn) [Example 2, 4-[1-(2-Fluoro-phenyl)-2-oxo-pyrrolidin-3-ylamino]-N-hydroxy-benzamide], for which the IC50 in assay [1] is 0.84 µM. In addition, the concentration for a half-maximal effect (EC50) in assay [2] stood at 4.02 µM. In addition, in assay [3], the “p21 RP3” value is reported as 0.33, the “p21 RP10” value was found to be 0.26 and the “p21 RP30” value turned out to be 0.46.
As to `CC(C)(c1ccc2ccccc2c1)N1CCC(Nc2ccc(C(=O)NO)cc2)C1=O` (stereo not drawn) [Example 53, N-Hydroxy-4-[1-(1-methyl-1-naphthalen-2-yl-ethyl)-2-oxo-pyrrolidin-3-ylamino]-benzamide], in assay [1], the IC50 amounted to 0.38 µM. The EC50 in assay [2] turned out to be 3.32 µM. Moreover, in assay [3], the “p21 RP3” value turned out to be 2.37, the “p21 RP10” value was determined as 1.21 and the “p21 RP30” value amounted to 0.13.
Take `O=C(NO)c1ccc(NC2CCN(c3cccc(Cl)c3Cl)C2=O)cc1` (stereo not drawn) [Example 24, 4-[1-(2,3-Dichloro-phenyl)-2-oxo-pyrrolidin-3-ylamino]-N-hydroxy-benzamide]: the IC50 in assay [1] came to 0.77 µM. Besides, the EC50 in assay [2] amounted to 2.48 µM. For the same compound, in assay [3], the “p21 RP3” value is given as 0.11, the “p21 RP10” value is on record as 0.02 and the “p21 RP30” value is 0.02.
As for `O=C(NO)c1ccc(NC2CCN(c3ccc(F)cc3)C2=O)cc1` (stereo not drawn) [Example 4, 4-[1-(4-Fluoro-phenyl)-2-oxo-pyrrolidin-3-ylamino]-N-hydroxy-benzamide], the IC50 in assay [1] was 0.89 µM. Further, the EC50 in assay [2] was 3.89 µM. In assay [3], the “p21 RP3” value came to 0.43, the “p21 RP10” value came to 0.31 and the “p21 RP30” value is 0.48.
Regarding `O=C(NO)c1ccc(NC2CCN(c3ncccn3)C2)cc1` (stereo not drawn) [Example 83, N-Hydroxy-4-(1-pyrimidin-2-yl-pyrrolidin-3-ylamino)-benzamide], the IC50 in assay [1] came to 1.21 µM. Also, the concentration giving a half-maximal response (EC50) in assay [2] amounted to 1.11 µM. Further, in assay [3], the “p21 RP3” value was found to be 0.37, the “p21 RP10” value is on record as 0.11 and the “p21 RP30” value is recorded as 0.08.
For `O=C(NO)c1ccc(NC2CCN(c3cccc(Oc4ccccc4)c3)C2=O)cc1` (stereo not drawn) [Example 30, N-Hydroxy-4-[2-oxo-1-(3-phenoxy-phenyl)-pyrrolidin-3-ylamino]-benzamide], the IC50 in assay [1] worked out at 3.21 µM. Moreover, the 50% effective concentration (EC50) in assay [2] is 2.28 µM. In addition, in assay [3], the “p21 RP3” value was found to be 0.13, the “p21 RP10” value is recorded as 0.09 and the “p21 RP30” value is given as 0.05.
Taken in the same sequence, the figures for `N#Cc1cccc(N2CCC(Nc3ccc(C(=O)NO)cc3)C2=O)c1` (stereo not drawn) [Example 18, 4-[1-(3-Cyano-phenyl)-2-oxo-pyrrolidin-3-ylamino]-N-hydroxy-benzamide] were 1.62 µM, 4.31 µM, 0.61, 0.02 and −0.01.
Regarding `CC1(Nc2ccc(C(=O)NO)cc2)CCN(c2cccc(Cl)c2)C1=O` (stereo not drawn) [Example 59, 4-[1-(3-Chloro-phenyl)-3-methyl-2-oxo-pyrrolidin-3-ylamino]-N-hydroxy-benzamide], the IC50 in assay [1] came to 0.16 µM. Besides, the EC50 in assay [2] is 0.3 µM. Further, in assay [3], the “p21 RP3” value stood at 0.23, the “p21 RP10” value is on record as 0.22 and the “p21 RP30” value was determined as 0.24.
The like results for `O=C(NO)c1ccc(NC2CCN(c3cccc4ccccc34)C2=O)cc1` (stereo not drawn) [Example 37, N-Hydroxy-4-(1-naphthalen-1-yl-2-oxo-pyrrolidin-3-ylamino)-benzamide] were, in that order, 0.93 µM, 2.16 µM, 0.04, 0.04 and 0.06.

These data come from US8404738B2 (Hoffmann-La Roche Inc., priority 2011, dated 2013).
